pIC50: −log10 of the molar value.
Molecular target: human NaV1.8 (Homo sapiens, UniProt Q9Y5Y9)
Test: Activity of representative NaV1.8 inhibitors, determined using one or more of the methods of Example 122 (method not specified)
Format: cell-based
Design: expressed in transfected cells; host or cells: HEK293 / HEK-293, stably expressing
Details: inhibition of the Nav1.8 channel; one or more of fluorescence, PatchXpress or IonFlux HT methods
Protocol: The ability of pyridazine carboxamide derivatives exemplified above to inhibit the NaV1.8 channel was determined using one or more of the methods described below.
A HEK293 cell line stably expressing the human NaV1.8 (hNaV1.8) ion channel with β1/β2 subunits was constructed. The cell line is suitable for IC50 determination in fluorescence and electrophysiological based assays. It is also suitable to form mechanism of action pharmacology studies in electrophysiological assays. HEK293 NaV1.8 cells are grown as adherent monolayers in DMEM/high glucose media, 10% fetal bovine serum, Na pyruvate (2 mM), Hepes (10 mM) with selection agents G418 (400 mg/L) and puromycin (0.5 mg/L) at 37 degrees C., 10% CO2.
Activity of Representative NaV1.8 Inhibitors
The ability of representative pyridazine carboxamide derivatives exemplified above to inhibit the Nav1.8 channel was determined using one or more of the methods described immediately hereinabove.

Chain of human NaV1.8 (Q9Y5Y9 whole entry): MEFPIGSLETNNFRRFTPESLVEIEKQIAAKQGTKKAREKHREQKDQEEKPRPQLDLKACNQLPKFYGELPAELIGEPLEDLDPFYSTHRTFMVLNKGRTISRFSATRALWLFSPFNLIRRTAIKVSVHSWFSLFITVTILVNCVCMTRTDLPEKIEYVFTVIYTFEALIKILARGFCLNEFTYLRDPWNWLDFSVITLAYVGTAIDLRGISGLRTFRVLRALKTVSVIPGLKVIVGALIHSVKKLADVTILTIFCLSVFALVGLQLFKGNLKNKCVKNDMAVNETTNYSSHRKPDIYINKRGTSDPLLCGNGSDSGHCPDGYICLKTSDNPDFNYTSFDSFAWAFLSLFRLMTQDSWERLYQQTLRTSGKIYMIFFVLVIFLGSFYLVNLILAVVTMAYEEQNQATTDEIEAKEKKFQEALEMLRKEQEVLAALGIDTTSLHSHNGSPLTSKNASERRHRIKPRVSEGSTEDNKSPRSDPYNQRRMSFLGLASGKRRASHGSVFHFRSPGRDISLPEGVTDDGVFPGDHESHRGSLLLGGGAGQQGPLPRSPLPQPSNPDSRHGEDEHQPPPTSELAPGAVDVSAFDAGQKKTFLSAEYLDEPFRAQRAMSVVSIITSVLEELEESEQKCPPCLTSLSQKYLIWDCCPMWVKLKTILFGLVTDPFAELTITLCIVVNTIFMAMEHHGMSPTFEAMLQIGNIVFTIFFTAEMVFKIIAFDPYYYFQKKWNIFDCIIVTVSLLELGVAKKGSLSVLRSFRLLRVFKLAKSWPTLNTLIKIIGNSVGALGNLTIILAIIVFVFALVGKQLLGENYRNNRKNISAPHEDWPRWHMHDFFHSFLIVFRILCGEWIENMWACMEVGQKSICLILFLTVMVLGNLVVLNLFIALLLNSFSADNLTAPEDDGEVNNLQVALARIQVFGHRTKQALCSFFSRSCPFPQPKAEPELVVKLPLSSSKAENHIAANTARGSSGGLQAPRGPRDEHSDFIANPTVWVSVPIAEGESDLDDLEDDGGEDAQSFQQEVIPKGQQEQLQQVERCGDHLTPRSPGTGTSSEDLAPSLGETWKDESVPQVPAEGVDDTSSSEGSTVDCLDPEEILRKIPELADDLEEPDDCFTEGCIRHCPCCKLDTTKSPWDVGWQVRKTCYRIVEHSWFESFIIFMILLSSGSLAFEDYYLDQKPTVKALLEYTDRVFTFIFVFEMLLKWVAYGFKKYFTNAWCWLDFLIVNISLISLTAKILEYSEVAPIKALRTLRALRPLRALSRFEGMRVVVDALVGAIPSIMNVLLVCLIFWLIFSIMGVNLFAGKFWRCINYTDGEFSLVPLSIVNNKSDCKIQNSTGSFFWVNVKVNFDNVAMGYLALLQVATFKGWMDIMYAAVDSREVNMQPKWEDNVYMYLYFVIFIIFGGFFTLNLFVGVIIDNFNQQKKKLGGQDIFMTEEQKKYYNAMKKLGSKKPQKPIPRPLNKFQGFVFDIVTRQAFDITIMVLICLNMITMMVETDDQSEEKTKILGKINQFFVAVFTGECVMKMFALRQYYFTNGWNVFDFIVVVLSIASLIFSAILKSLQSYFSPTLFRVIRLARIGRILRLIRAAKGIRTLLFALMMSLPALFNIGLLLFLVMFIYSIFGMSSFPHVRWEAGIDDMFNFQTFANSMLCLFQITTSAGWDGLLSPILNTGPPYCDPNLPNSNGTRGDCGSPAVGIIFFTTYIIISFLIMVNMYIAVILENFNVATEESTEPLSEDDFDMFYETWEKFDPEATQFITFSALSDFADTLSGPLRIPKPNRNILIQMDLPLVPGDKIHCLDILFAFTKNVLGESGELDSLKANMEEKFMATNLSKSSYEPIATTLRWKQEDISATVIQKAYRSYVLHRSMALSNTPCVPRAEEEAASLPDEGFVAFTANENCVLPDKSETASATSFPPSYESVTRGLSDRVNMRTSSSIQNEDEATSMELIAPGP

pIC50: > 6.30
SMILES: CS(=O)(=O)c1cccc(NC(=O)c2cc(Cl)nnc2Oc2ccc(OC(F)(F)F)cc2)c1 [Example 3, 6-chloro-N-(3-methylsulfonylphenyl)-3-[4-(trifluoromethoxy)phenoxy]pyridazine-4-carboxamide]

— patent US20240336574A1 (LATIGO BIOTHERAPEUTICS, INC., priority 2021, published 2024)
